In BindingDB's records for doi:10.1021/jm000956k (Glaxowellcome, 2001):

Key:
[1] = target: 5-hydroxytryptamine receptor 2A (Oryctolagus cuniculus); assay: Binding affinity against rabbit aorta 5-HT2A receptor
[2] = target: 5-hydroxytryptamine receptor 1D (Bos taurus); assay: Binding affinity against calf caudate 5-hydroxytryptamine 1D receptor
[3] = target: 5-hydroxytryptamine receptor 2C (Cavia porcellus); assay: Binding affinity against guinea pig cortex 5-HT2C receptor in the presence of [3H]mesulergine

IC50 [1]: > 10 µM
IC50 [2]: 0.089 µM
IC50 [3]: > 10 µM
SMILES: CN(C)[C@H]1C[C@H](c2c[nH]c3ccc(CC4COC(=O)N4)cc32)C1 (stereo partly drawn)
